What was measured:
TCN activation = test: Burning pain and stinging from highly acidic chemical peel (70% glycolic acid, pH 0.6); format: in vivo; conditions: strontium mixed with the acid (70% glycolic acid, pH 0.6)
Description: Nociceptors also have a CaSR that inhibits nociceptor activation when the extracellular concentration of calcium is raised above normal, or if a similar concentration of strontium is administered. […] When strontium is mixed with the acid, burning pain and stinging is suppressed by 80% or more so that any remaining sensory irritation is not bothersome.

IL-17 = target: T1, IL-17 (Homo sapiens, UniProt Q16552); test: Preliminary investigations on the psoriasis inflammatory/keratinocyte cycle, IL-17
T1 sequence (Q16552 24-155): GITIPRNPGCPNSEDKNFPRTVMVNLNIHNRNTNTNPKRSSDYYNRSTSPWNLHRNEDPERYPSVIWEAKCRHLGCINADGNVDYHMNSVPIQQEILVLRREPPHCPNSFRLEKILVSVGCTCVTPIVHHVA
Description: (§1) The present disclosure is premised on the belief that the psoriatic cycle begins with a triggering event such as trauma, infection, or stress that causes the keratinocytes to become stressed and activates dendritic cells. The dendritic cells release IL-12 and IL-23, which in turn stimulate Th17 and Th1 cells […]. Th17 releases […] which stimulates inflammation. Similarly, Th1 cells release […] which stimulates inflammation. Th1 cells also stimulate keratinocyte division leading to the formation of plaques. The activation of immune cells releases cytokines which also activates keratinocytes. The interaction between the immune system and keratinocyte activation becomes a self-feeding cycle.
(§2) Applicants' preliminary investigations indicate that strontium can break up the inflammatory/keratinocyte cycle of psoriasis, specifically by blocking the IL-17 and TNF-alpha. By targeting and blocking the two main pathways that activated dendritic cells use to trigger a psoriatic episode, strontium has immense potential as a therapeutic for psoriasis.

TNF-alpha = TNF-alpha (Homo sapiens, UniProt P01375); test: Preliminary investigations on the psoriasis inflammatory/keratinocyte cycle, TNF-alpha
TNF-alpha, sequence (P01375 77-233 limits assumed, species assumed): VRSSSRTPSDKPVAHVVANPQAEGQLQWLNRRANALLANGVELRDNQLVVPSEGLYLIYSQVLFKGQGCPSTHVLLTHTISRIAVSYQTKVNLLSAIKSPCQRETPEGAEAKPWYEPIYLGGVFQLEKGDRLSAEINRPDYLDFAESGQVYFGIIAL
Description: as §1, §2

TLR-4 = TLR-4 (Homo sapiens, UniProt O00206); test: Preliminary data in atopic dermatitis pathways, TLR-4
TLR-4, sequence (O00206 24-839, species assumed): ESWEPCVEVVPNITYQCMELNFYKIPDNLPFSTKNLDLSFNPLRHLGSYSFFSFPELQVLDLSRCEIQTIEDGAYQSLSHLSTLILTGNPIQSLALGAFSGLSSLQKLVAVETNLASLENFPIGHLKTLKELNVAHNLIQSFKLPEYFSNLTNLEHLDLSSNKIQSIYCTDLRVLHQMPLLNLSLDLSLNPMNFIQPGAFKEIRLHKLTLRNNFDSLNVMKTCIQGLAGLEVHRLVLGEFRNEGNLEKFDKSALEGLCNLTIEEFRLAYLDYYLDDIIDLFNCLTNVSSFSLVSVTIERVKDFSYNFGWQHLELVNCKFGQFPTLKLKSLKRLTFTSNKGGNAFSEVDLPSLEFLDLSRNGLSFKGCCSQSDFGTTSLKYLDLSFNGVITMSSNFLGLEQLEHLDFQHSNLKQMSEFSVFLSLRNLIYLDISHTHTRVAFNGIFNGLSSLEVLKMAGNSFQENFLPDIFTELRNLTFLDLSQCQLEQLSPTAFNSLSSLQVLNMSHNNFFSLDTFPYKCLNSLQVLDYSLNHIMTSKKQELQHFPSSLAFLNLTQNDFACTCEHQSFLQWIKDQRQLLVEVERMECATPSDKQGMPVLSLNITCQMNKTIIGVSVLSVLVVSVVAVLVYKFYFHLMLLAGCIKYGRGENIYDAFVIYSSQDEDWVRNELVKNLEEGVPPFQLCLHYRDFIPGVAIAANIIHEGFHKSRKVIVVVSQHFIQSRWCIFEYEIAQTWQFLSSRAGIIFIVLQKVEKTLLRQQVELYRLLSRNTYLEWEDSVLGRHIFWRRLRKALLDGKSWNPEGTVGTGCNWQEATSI
TLR-4, sequence (Q9Y6Y9 17-160 partner limits assumed, species assumed): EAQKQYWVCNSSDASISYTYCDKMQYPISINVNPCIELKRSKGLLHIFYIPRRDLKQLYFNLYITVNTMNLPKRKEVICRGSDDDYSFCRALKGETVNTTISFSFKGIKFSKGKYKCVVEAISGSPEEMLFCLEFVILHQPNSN
Description: The present disclosure is premised on the belief that people with atopic dermatitis have higher levels of Staphylococcus aureus on their skin. The higher bacterial levels trigger an immune response via the toll-like receptors, in particular toll-like receptor 4 (TLR-4). The present disclosure is also premised on the belief that continual activation of TLR-4 contributes to the chronic nature of atopic dermatitis.

MMP = test: Preliminary data in atopic dermatitis pathways, MMP activity
Description: Other molecular pathways activated in atopic dermatitis include matrix metalloproteinases (MMPs). MMPs are a family of enzymes capable of breaking down extracellular matrix proteins, including connective tissues.

HSV1 = test: Preliminary investigations on HSV1 symptoms; format: in vivo
Description: Without wishing to be bound by any one theory, it is believed that strontium's ability to block NF-Kappa B contributes to minimizing the symptoms associated with an active infection. As mentioned above, HSV 1 and 2 require the activation of NF-Kappa B for de novo virus synthesis. By blocking NF-Kappa B, strontium is essentially stopping the infection at an early stage.

[1] = Preliminary investigations on post herpetic neuralgia pain; format: in vivo
[2] = system: synchronous neurotransmitter release in response to TCN activation; conditions: strontium substitutes for calcium; cited from earlier work
CICR pathway = conditions: cited from earlier work

[Sr+2] [strontium, Strontium]
suppression of burning pain and stinging (TCN activation): ≥ 80%
blocking of IL-17 (IL-17): blocking
blocking of TNF-alpha (TNF-alpha): blocking
TLR-4 activity (TLR-4): can block
MMP activity (MMP): can block
pain, itch, and rash/blister formation associated with HSV1 (HSV1): can reduce and or eliminate
pain associated with PHN [1]: can reduce or block
reduction of amplitude of synchronous neurotransmitter release [2]: more than 90%
ability to induce CICR relative to calcium (CICR pathway): over a hundred-fold less active than calcium
concentration reached in the ER, greater than calcium (CICR pathway; in the ER): more than 150%

— US20220054535A1, “STRONTIUM BASED COMPOSITIONS AND FORMULATIONS FOR PAIN, PRURITUS, AND INFLAMMATION” (STRONTIUM NEUROGENICS INC., priority 2018, published 2022)
